Data reported in patent US10280174B2, “Salt of fused pyrimidine compound and crystal thereof” (TAIHO PHARMACEUTICAL CO., LTD., priority 2015, dated 2019).

Columns and labels:
[1] = Solid stability test (acceleration test), 40° C./75% RH; type: physicochemical; settings: for total mass of analogous substance: 4 weeks
Protocol: Solid stability was measured under the following conditions, with respect to monofumarate of Compound A, hemifumarate of Compound A, hemitartrate of Compound A and monophosphate of Compound A which were obtained in the Examples and the Reference Examples, when they were stored for 2 weeks or 4 weeks at 40° C./75% RH (sealed condition and opened condition).
Storage condition: 40° C./75% RH (Sealed and Opened) (Opened refers to a condition where a glass container has the lid removed, and is covered with a KimWipe).
Points of measurement: 2 weeks and 4 weeks
Storage amount: About 30 mg
Storage container: Brown glass container
Method of preparing sample solution: Sample was dissolved in 50% acetonitrile such that a concentration of the sample would be 0.4 mg/mL.
Mass of analogous substance in the sample solution was measured by HPLC analysis. Handling of the devices including data processing was based on the method and the process indicated in each device. (Device: Shimadzu Corporation SIL-HTc/LC-20AB)
Column: InertSustein C18, 4.6×150 mm, 3 μm, manufactured by GL Sciences Inc.
MS detection: ESI positive
Column temperature: 40° C.
Column flow rate: 1.0 mL/min
Mobile phase: A; 10 mmol/L phosphate buffer (pH 6.0): Acetonitrile mixed solution (17:3), B; Acetonitrile
Amount of injection: 5 μL
In the Table, A, B and C refer to percentages of the total mass of analogous substance of less than 0.1%, 0.1% or more and less than 0.5%, and 0.5% or more, respectively. Incidentally, those marked with * were measured at 2 weeks' time and the others were measured at 4 weeks' time.

[2] = target: recombinant human BTK protein (Homo sapiens (Human), UniProt Q06187); experiment: Measurement of BTK inhibitory activity (in vitro); type: biochemical; settings: ATP 45 μM, FL-Peptide 2 substrate
recombinant human BTK protein, sequence (Q06187 whole entry): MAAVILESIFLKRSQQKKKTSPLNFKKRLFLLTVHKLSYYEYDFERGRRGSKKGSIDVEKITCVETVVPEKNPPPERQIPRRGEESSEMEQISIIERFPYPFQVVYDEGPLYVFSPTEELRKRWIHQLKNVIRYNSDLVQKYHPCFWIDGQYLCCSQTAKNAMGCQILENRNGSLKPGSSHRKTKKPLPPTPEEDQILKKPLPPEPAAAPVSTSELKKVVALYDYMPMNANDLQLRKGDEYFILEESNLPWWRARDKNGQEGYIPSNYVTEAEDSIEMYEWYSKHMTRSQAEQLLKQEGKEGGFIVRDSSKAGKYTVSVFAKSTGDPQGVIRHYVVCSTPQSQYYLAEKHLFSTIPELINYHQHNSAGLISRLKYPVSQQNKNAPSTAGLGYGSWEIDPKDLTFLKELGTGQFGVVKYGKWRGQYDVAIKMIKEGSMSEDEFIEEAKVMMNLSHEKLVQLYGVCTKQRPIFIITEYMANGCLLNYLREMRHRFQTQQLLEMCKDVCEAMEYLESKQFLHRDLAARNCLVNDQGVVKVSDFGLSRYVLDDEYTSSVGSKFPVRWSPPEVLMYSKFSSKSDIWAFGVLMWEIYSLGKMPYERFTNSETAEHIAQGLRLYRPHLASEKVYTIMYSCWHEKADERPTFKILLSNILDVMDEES
Description: In a condition set for a method of measuring inhibitory activity in vitro of the compounds against BTK kinase activity, FL-Peptide 2 was used as a substrate, since it was described in a price list of LabChip (Registered trademark) series sample consumables of PerkinElmer Co., Ltd. that FL-Peptide 2 corresponded to a substrate peptide in a measurement of BTK kinase activity. The refined recombinant human BTK protein used in the test was purchased from Carna Biosciences, Inc.
With regard to the measurement of the inhibitory activity of the compounds, firstly, monofumarate of Compound A was diluted stepwise with dimethyl sulfoxide (DMSO). Subsequently, BTK protein, a substrate peptide (final concentration was 1 μM), magnesium chloride (final concentration was 10 mM), ATP (final concentration was 45 μM), and a DMSO solution of the test compounds (final concentration of DMSO was 5%) were added to a buffer solution for kinase reaction (20 mM HEPES (pH 7.5), 2 mM dithiotheitol, 0.01% Triton X-100), and after the solution was incubated for 40 minutes at 25° C., a kinase reaction was carried out. […] Finally, a substrate peptide that was not phosphorylated (S) and a phosphorylated peptide (P) were separated and detected by microchannel capillary electrophoresis with a LabChip EZ Reader II (PerkinElmer, Inc.). […]

total mass of analogous substance ([1]; Opened): A (less than 0.1%)
total mass of analogous substance ([1]; Sealed): A (less than 0.1%)
solid stability (in words) ([1]; compared to hemitartrate or monophosphate): excellent solid stabilities
IC50 [2]: 1.19 nM
SMILES: C=CC(=O)N1CCC[C@@H](n2nc(C(=O)Nc3nc4ccccc4o3)c3c(N)ncnc32)C1.O=C(O)/C=C/C(=O)O [monofumarate of Compound A, (R)-1-(1-acryloylpiperidin-3-yl)-4-amino-N-(benzo[d]oxazol-2-yl)-1H-pyrazolo[3,4-d]pyrimidine-3-carboxamide.monofumarate]
